The record followed here is patent US20110052720A1 (priority 2007, published 2011).

The data set in a line: Reversal of a formed copper phosphite precipitate by an added agent (Example 1). It is filed as physicochemical. The settings on record: precipitate from 0.6 g/l Cu(OH)2, 14.4 g/l KH2PO3, 1 g/l K2CO3, pH 5.5; chelators 10 mM, sodium lignosulfonate 6 g/l (48 hours of stirring). The text has this: Copper phosphite precipitate was formed by combining 0.6 g/l of Cu(OH)2 and 14.4 g/l of KH2PO3 in the presence of 1 g/l of K2CO3 to ensure pH 5.5 in demineralised water.

Consider `O=C([O-])CN(CCN(CC(=O)[O-])CC(=O)O)CC(=O)O.[Na+].[Na+]` [disodium EDTA], for which the “Effect of afterwards addition on copper phosphite precipitate” value is “immediately disappeared”.
